From patent publication US20100292132A1, “USE OF INSULIN C-PEPTIDE, ALONE OR IN COMBINATION WITH GLP-1, AS A THERAPEUTIC AGENT” (priority 2007, published 2010)

Columns and labels:
HIV-1IIIB = test: HIV-1 antiviral assay (CPE reduction, MTS) in CEM-SS cells; details: for antiviral activity of positive control compounds: HIV-1IIIB in CEM-SS cells; for reduction of cytopathic effect (CPE) in HIV-1 infected CEM-SS cells: 10 micrograms per ml, HIV-1IIIB, 6 days post-infection
HCMV strain AD169 = test: HCMV plaque formation assay in MRC-5 cells; details: for inhibition of HCMV plaque formation as compared to the virus control experiment: 10 micrograms per ml, MRC-5 cells, 7-10 days
[1] = system: hepatitis B virus (HBV) ayw strain; test: HBV replication assay in HepG2-2.2.15 cells (TaqMan PCR of secreted HBV DNA); type: cell-based; details: 10 micrograms per ml, six days
murine spleen cells = test: Th1/Th2 cytokine profiling assay; type: cell-based, Balb/c mice; details: 10 micrograms per ml; Ovalbumin restimulation; 72 hours
Source text: The Balb/c mice (originated in 1923, it is a popular strain and is used in many different research disciplines. Also classified as an inbred from the production of 20 or more successive brother-sister matings, the Balb/c mouse is albino and small in size) were immunized on Days 1, 15, and 29 with Ovalbumin (Ovalbumin is the main protein found in egg white, commonly used to stimulate an immunological reaction in test animals) in PBS (5 micrograms/injection). On day 50, spleens of the mice were harvested (3 weeks after last boost with Ovalbumin). […] Thereafter, additional Ovalbumin was added to the cells at 10 micrograms/ml for in vitro restimulation of the cells. 72 hours later, cell supernatants were harvested and assayed using the Becton Dickinson Mouse Th1/Th2 Cytokine CBA Kit. This kit can be used to measure Interleukin-2 (IL-2), Interleukin-4 (IL-4), Interleukin-5 (IL-5), Interferon-γ(IFN-γ), and Tumor Necrosis Factor-α (TNF-α) protein levels in a single sample. The kit performance has been optimized for analysis of physiologically relevant concentrations (pg/ml levels) of specific cytokine proteins in tissue culture supernatants and serum samples.

[2] = system: Primary Human endothelial cells (HUVEC); test: Endothelial cell migration assay; type: cell-based; details: 10 micrograms per ml; 22 hours
Protocol: Primary Human endothelial cells (HUVEC) were seeded in insert chambers with 3 micrometer pore size of multi-transwell plate for 6 hours at 37° C. in Endothelial Cell Basal Medium (EBM) supplemented with 0.1% bovine serum albumin. Thereafter, designated concentration of testing peptides—10 micrograms per ml—was added in duplicate wells. The endothelia were allowed to migrate for 22 hours at 37° C., then, migrated cells were fixed and stained with Hoechst 33342 dye. Images of 3 fields per insert were taken and the number of migrated cells per field were quantified using the ImageProPlus software. Data were analyzed for the average number of the migrated cells and standard deviation of six data points for each treatment condition. Active test peptides against HUVEC migration was determined based on 50% inhibition of migrated cells as compared with the control. Statistic p values were computed using the Student's t-test.

HUVEC = test: Endothelial tube formation assay; type: cell-based, human; details: 10 micrograms per ml; 20 hours
Protocol: The endothelial tube formation assay is based on the ability of endothelial cells to form three-dimensional capillary-like tubular structures when cultured on a gel of basement membrane extract. The endothelial tube formation assay represents a powerful model for studying inhibition and induction of angiogenesis. Pre-labeled HUVEC with Calcein AM were seeded in a 96-well culture plate coated with extracellular metrix (Chemicon international Cat. ECM625) and treated with test peptides—10 micrograms per ml—in full growth medium. Positive control wes vehicle only. The endothelial cells were allowed to form tubes foe 20 hours and were then examined under an inverted fluorescent microscope. Duplicate wells for each treatment were photographed and quantitatevily analyzed for an average tubule length using image analysis software ImageProPlus. Raw data were expressed as average tubule lenghs in pixels ± standard deviation. Statistic p values were computed using the Student's t-test.

Compound	antiviral activity of positive control compounds (HIV-1IIIB)	inhibition of HBV replication as compared to the virus control infection [1] [%]	change of the production of IL-5 (murine spleen cells)	change of the production of TNF-alpha (murine spleen cells)	inhibition of the migration of human endothelial cells [2] [%]	inhibition of the tube formation of human endothelial cells (HUVEC) [%]	inhibition of HCMV plaque formation as compared to the virus control experiment (HCMV strain AD169)	reduction of cytopathic effect (CPE) in HIV-1 infected CEM-SS cells (HIV-1IIIB) [%]	other results
Cc1cn([C@H]2C[C@H](N=[N+]=[N-])[C@@H](CO)O2)c(=O)[nH]c1=O [AZT, reference compound]	expected levels of antiviral activity	–	–	–	–	–	–	–	–
Nc1nc(O)c2ncn(COC(CO)CO)c2n1 [Ganciclovir, reference compound]	–	–	–	–	–	–	–	–	antiviral activity of positive control compound (HCMV strain AD169; HCMV in MRC-5 cells): expected levels of antiviral activity
CC(C)(C)NC(=O)[C@@H]1CN(Cc2cccnc2)CCN1C[C@@H](O)C[C@@H](Cc1ccccc1)C(=O)N[C@H]1c2ccccc2C[C@H]1O [indinavir, reference compound]	expected levels of antiviral activity	–	–	–	–	–	–	–	–
Glu-Ala-Glu-Asp-Leu-Gln-Val-Gly-Gln-Val-Glu-Leu-Gly-Gly-Gly-Pro-Gly-Ala-Gly-Ser-Leu-Gln-Pro-Leu-Ala-Leu-Glu-Gly-Ser-Leu-Gln-OH (EAEDLQVGQVELGGGPGAGSLQPLALEGSLQ; printed: Glu-Ala-Glu-Asp-Leu-Gln-Val-Gly-Gln-Val-Glu-Leu-Gly-Gly-Gly-Pro-Gly-Ala-Gly-Ser-Leu-Gln-Pro-Leu-Ala-Leu-Glu-Gly-Ser-Leu-Gln-) [Peptide 1]	–	13.6	did not significantly change	did not significantly change	29	19	did not inhibit	93.6	change of the production of IFN-gamma (murine spleen cells): did not significantly change; induction of the production of IL-2 (murine spleen cells): 24.6%; induction of the production of IL-4 (murine spleen cells): 34.7%
His-Ala-Glu-Gly-Thr-Phe-Thr-Ser-Asp-Val-Ser-Ser-Tyr-Leu-Glu-Gly-Gln-Ala-Ala-Lys-Glu-Phe-Ile-Ala-Trp-Leu-Val-Lys-Gly-Arg-NH2 [Peptide 2]	–	37.2	did not significantly change	did not significantly change	6	1	2.9%	61.1	decrease of the production of IFN-gamma (murine spleen cells): 39.7%; decrease of the production of IL-2 (murine spleen cells): 45.7%; decrease of the production of IL-4 (murine spleen cells): 70.9%
